Consider 23 compounds from patent EP0346791B1, “1,2-diarylethylamines for treatment of neurotoxic injury” (priority 1988, dated 1989).

The target of test [1] is PCP receptors. The test is classed as binding. The settings on record: 1 nM 3H-TCP, whole rat brain membranes, 1 hour incubation; value ± SEM; read-out: Ki apparent.
Test [2] deals with Male Sprague-Dawley rats. Briefly: Behavioral assay (stereotyped behavior, PCP rating scale). The test is classed as in vivo. The settings on record: 95% confidence intervals in parenthesis; for ED50: Rattus norvegicus. The method, then:
Nine compounds were tested in comparison with PCP and TCP by an in vivo assay which determined stereotypic behavior in rats treated with the compounds. Male Sprague-Dawley rats weighing 200 to 250 g were used in the behavioral experiments. Each rat was used only once. Rats were anesthetized lightly with ether before a 20-gauge needle was used to make a hole in the rat's skull for i.c.v. injection of drugs at a later date. These rats were allowed to recover for at least 1 day before being used in the behavioral assays. On the day of the experiment, rats were placed individually into plastic rat cages and allowed at least 1 hr to acclimate before testing. Drugs were administered to rats in a random, single-blind fashion.
Dose-response curves for each treatment were determined at the time of maximal behavioral effect. Peak effects were found 5 min after i.c.v. administration of PCP (25-20000 nmol/rat). […] A rating of 5 in the PCP-rating scale was considered as complete stereotyped behavior, that is, a 100% response. At least 21 rats (at least seven rats/dose) were used to determine each dose-response curve and ED₅₀ values. ED₅₀ values and dose-response curves were evaluated using a computerized Finney assay [Statistical Methods In Biological Assays, 2nd Edn., Hatner Pub. Co., New York (1964)].
The ability of the tested compounds to induce stereotyped behavior was assessed at 2.5, 5 and 10 minutes and thereafter every 5 min up to 1 hr after i.c.v., i.p., or s.c. administration.

In test [3] the test system is Male Mongolian gerbils. Nature of the test: Forebrain ischemia assay (carotid occlusion, CA1 cell loss). The test is classed as in vivo. The settings on record: 30 mg/kg i.p. 30 minutes prior to carotid occlusion; 7 days; vs saline injected gerbils; Mann-Whitney U test p<0.01. The method, then: Male Mongolian gerbils, 50-70 gm, were used as subjects. Compound No. 1 (30 mg/kg) was injected i.p. 30 minutes prior to carotid occlusion into 6 gerbils. In preparation for surgical procedures, the animals were lightly anesthetized with methoxyflurane and placed upside down on a heated pad with their snout within a nosecone. Nitrous oxide (70%): oxygen (30%) plus 0.5% halothane was circulated through the nosecone to provide continuous anesthesia throughout the surgical procedure. A midline incision was made in the neck and the carotid arteries were exposed. A length of suture thread was placed under each carotid. The thread was then tightened around each carotid and pressure applied to the thread to insure flow was occluded. Flow was occluded for 4-5 minutes and then the thread was removed. The carotids were visually inspected to confirm that reflow had occurred. The wound was then closed with autoclips and the gerbils allowed to recover. Following surgery, the gerbils were kept alive for 7 days. They were anesthetized with 100 mg/kg sodium pentobarbital and perfused transcardially with saline (with heparin) followed by buffered formalin. The brain was removed, trimmed and prepared for histological processing. Sections (10 microns) were stained with thionin. […]

In test [4] the test system is hippocampal neurons. Nature of the test: Chronic hypoxic insult assay (MTT neuronal survival). The settings on record: for Optical Density: 6 hours anaerobic chamber, then 2 hours normal O2, MTT 570 nm, ± SEM, untreated control 0.058, hypoxia alone 0.020; for Maximum protection of neurons from hypoxic insult was obtained with: concentration giving maximum protection. The test is classed as cell-based, Sprague-Dawley rats. The method, then: Compound Nos. 4 and 5 were tested for their ability to protect hippocampal neurons from hypoxia-induced cell death. Cultures of hippocampal neurons were prepared from embryonic day 17 Sprague-Dawley rats. The hippocampi were dissociated into a single cell suspension by incubation with 0.25% trypsin, […] DNase followed by gentle trituration through a Pasteur pipet. The cells were plated in a polylysine-coated 96-well plate and maintained in a chemically defined medium until use. The cells were grown for 2 to 3 weeks in 5% CO₂-in-air humidified environment at 36°C to establish a thick network of neuronal processes with numerous spontaneously active synapses. Exposure to hypoxic/anoxic environment was accomplished by placing the cultures in an anaerobic chamber, and flushing it with a mixture of 95% N₂+ 5% CO₂ gas to rapidly drop the O₂ tension to near zero. The O₂ tension was maintained at near zero using a disposable H₂ + CO₂ generator envelope with palladium catalyst. Compound No. 4 and Compound No. 5 were added to the culture medium prior to incubation in the anaerobic chamber and maintained there for 6 hours. Following 2 hours of exposure to normal O₂ tension, the cultures were processed for morphological and quantitive biochemical neuronal cell viability assays.
The neuronal survival assay utilized the compound MTT [(3-(4,5-dimethylthiazol-2-yl)-2,5-diphenyl tetrazolium bromide)], a pale yellow substrate that is cleaved by the mitochondrial enzyme succinate-dehydrogenase to yield a dark blue formazan product. This process requires active mitochondria, present only in live cells. Cultures of hippocampal neurons grown in 96-well plates were incubated with 1 mg/ml MTT at 36°C in a 10% CO₂-in-air incubator for 30-60 min. At the end of the incubation, a dark blue precipitate outlined only viable cells. The precipitate was then solubilized using 0.08 N HCl/isopropanol mixture and the absorbance measured with an ELISA plate reader (Dynatech MR600) using a test wavelength of 570 nm and a reference wavelength of 630 nm. The resulting optical density is directly proportional to the number of viable cells.

For test [5], the system named is hippocampal neurons. Nature of the test: Acute azide toxicity assay (MTT neuronal survival). The test is classed as cell-based, Sprague-Dawley rats. The settings on record: 10 µM sodium azide for 1 hour.
Where [6] appears, read: sc, read-out: Stereotyped Behavior ED₅₀ s.c.
Setting [7] is: ip, read-out: Stereotyped Behavior ED₅₀ i.p.

Molecules are shown by their SMILES. Like-named read-outs stand apart in the source and are kept apart here.

As to `Clc1ccccc1C(Cc1ccccc1)N1CCCCC1` (racemic) [Compound No. 31], the Ki in test [1] is 0.19 ± 0.11 nM.

Take `c1ccc(CC(c2ccccc2)N2CCCC2)cc1` (racemic) [Compound No. 20]: in test [1], the Ki came to 16000 ± 2600 nM. In addition, the ED50 in test [2] (setting [6]) stood at 7.8 mg/kg.

On to `COc1ccc(C(Cc2ccccc2)N2CCCCC2)cc1` (racemic) [Compound No. 22], for which, in test [1], the Ki came to 8100 ± 500 nM.

For the compound `C1=CCN(C(Cc2ccccc2)c2cccs2)CC1` (racemic) [Compound No. 15], the ED50 in test [2] (setting [6]) is 1.7 mg/kg.

In the case of `c1ccc(CC(c2ccccc2)N2CCCCC2)cc1` (racemic) [Compound No. 1], the ED50 turned out to be 2 mg/kg in test [2] (setting [7]) and 2.9 mg/kg in test [2] (setting [6]). For the same compound, in test [3], the “cell loss in CA1” value is “significantly reduced”.

Consider `c1ccc(CC(c2ccco2)N2CCCCC2)cc1` (racemic) [Compound No. 30], for which the Ki in test [1] worked out at 400 ± 10 nM.

For `CC1CC(C)CN(C(Cc2ccccc2)c2ccccc2)C1` (racemic) [Compound No. 24], the Ki in test [1] stood at 850 ± 40 nM.

On to `c1ccc(CC(c2cccs2)N2CCCCC2)cc1` (racemic) [Compound No. 5], for which, in test [4] (Hypoxia + 10 µM compound), the “Optical Density” value turned out to be 0.047 ± 0.01. Moreover, the “Maximum protection of neurons from hypoxic insult was obtained with” value in test [4] came out at 10 µM. In addition, the ED50 in test [2] (setting [6]) came out at 3.5 mg/kg.

In the case of `c1ccc(CC(c2ccccc2)N2CCCCC2)cc1` (single isomer, unassigned) [Compound No. 4], the “Optical Density” value in test [4] (Hypoxia + 1 µM compound) was determined as 0.046 ± 0.01. Further, in test [4], the “Maximum protection of neurons from hypoxic insult was obtained with” value is recorded as 1 µM. Besides, the “protection of neurons from sodium azide toxicity” value in test [5] (100 µM compound) was “significant protection”. Besides, the “Optical Density” value in test [5] (Sodium azide + 100 µM compound, MTT, ± SEM, control 0.123, sodium azide alone 0.075) is on record as 0.133 ± 0.01. For the same compound, the ED50 in test [2] (setting [7]) is 2.1 mg/kg. Moreover, in test [2], the “Stereotyped Behavior ED₅₀ i.c.v.” value is given as 120(100-140) nmoles/rat and the “Stereotyped Behavior ED₅₀ s.c.” value was 0.78(0.60-1.0) mg/kg.

In the case of `c1ccc(C(N2CCCCC2)C2(c3ccccc3)CC2)cc1` (racemic) [Compound No. 23], in test [1], the Ki is more than 30000 nM.

Regarding `COc1cccc(C(Cc2ccccc2)N2CCCCC2)c1` (racemic) [Compound No. 26], the Ki in test [1] came out at 100 ± 20 nM.

Consider `COc1ccccc1C(Cc1ccccc1)N1CCCCC1` (racemic) [Compound No. 32], for which, in test [1], the Ki came out at 170 ± 10 nM.

`c1ccc(CC(c2ccccc2)N2CCCCC2)cc1` (single isomer, unassigned) [Compound No. 3]: the “Stereotyped Behavior ED₅₀ s.c.” value in test [2] is given as more than 40 mg/kg.

Consider `c1ccc(CC(c2cccc3ccccc23)N2CCCCC2)cc1` (racemic) [Compound No. 33], for which, in test [1], the Ki is 6000 ± 1700 nM.

For the compound `Cc1cccc(C(Cc2ccccc2)N2CCCCC2)c1` (racemic) [Compound No. 29], the Ki in test [1] amounted to 110 ± 30 nM.

As for `Cc1ccc(C(Cc2ccccc2)N2CCCCC2)cc1` (racemic) [Compound No. 21], in test [1], the Ki came to 1800 ± 300 nM.

Consider `C1=CCN(C(Cc2ccccc2)c2ccccc2)CC1` (racemic) [Compound No. 6], for which the “Stereotyped Behavior ED₅₀ i.c.v.” value in test [2] was 100(81-120) nmoles/rat.

On to `CC(C)C(c1ccccc1)C(c1ccccc1)N1CCCCC1` (racemic) [Compound No. 12], for which the ED50 in test [2] (setting [6]) is more than 50 mg/kg.

Regarding `CC(C)(c1ccccc1)C(c1cccs1)N1CCCCC1` (racemic) [Compound No. 25], the Ki in test [1] was more than 30000 nM.

Turning to `Fc1ccc(C(Cc2ccccc2)N2CCCCC2)cc1` (racemic) [Compound No. 27], the Ki in test [1] came out at 220 ± 10 nM.

As to `c1ccc(C2(N3CCCCC3)CCCCC2)cc1` [PCP, Phencyclidine, reference compound], the “Stereotyped Behavior ED₅₀ i.c.v.” value in test [2] is given as 150(120-170) nmoles/rat.

Take `CC(C)(c1ccccc1)C(c1ccccc1)N1CCCCC1` (racemic) [Compound No. 28]: the Ki in test [1] turned out to be 12000 ± 1000 nM.

On to `OC(c1ccccc1)C(c1ccccc1)N1CCCCC1` (racemic) [Compound No. 13], for which the ED50 in test [2] (setting [6]) was found to be 11 mg/kg.
